Patent US5620675A, “Radioactive peptides” (Diatech, Inc., priority 1993, dated 1997)
Starred links: 1 amine or outer side, 2 acyl side, 3 side chain; linkers in the order of their positions; H or OH if unused. Non-standard residues stand in square brackets, D forms with d. Residues, ends and D or L forms follow the SMILES beside them. *: point of attachment. DTPA = O=C(O)CN(CCN(CC(=O)O)CC(=O)O)CCN(CC(=O)O)CC(=O)*; Phe(4-Cl) = N[C@@H](Cc1ccc(Cl)cc1)C(=O)O; X4 = CC(C)(S)CNCCN(CCCCC(=O)*)CC(C)(C)S; 2Nal = N[C@@H](Cc1ccc2ccccc2c1)C(=O)O; d2Nal = N[C@H](Cc1ccc2ccccc2c1)C(=O)O; εLys = N[C@@H](CCCCN[*:1])C(=O)[*:2]; Acm = CC(=O)NC*

target: T1, somatostatin receptor (Rattus norvegicus, UniProt P30680); assay: Inhibition of binding of [125I-Tyr11]somatostatin-14 to AR42J rat pancreatic tumor cell membranes; conditions: inhibition constant; displacement of 0.5 nM [125I-Tyr11]somatostatin-14 from AR42J cell membranes, 25 min at 30° C; free peptides and [Re=O]-complexed peptides
T1 construct: endogenous in cells; host or cells: AR42J rat pancreatic tumor cell line (membrane preparation)
Procedure: Inhibition of Binding of [^125 I-Tyr^11 ]somatostatin-14 to AR42J Rat Pancreatic Tumor Cell Membranes
The rat pancreatic tumor cell line AR42J which expresses the somatostatin receptor was cultured in Dulbecco's minimal essential media (DMEM) supplemented with 10% fetal bovine serum (FBS) and 8 mM glutamine in a humdified 5% CO2 atmosphere at 37° C. in T-flasks. Harvested cells were homogenized in cold 50 mM Tris-HCl buffer (pH 7.4) and the homogenate then centrifuged at 39,000 g for 10 min at 4° C. Pellets were washed once with buffer and then resuspended in an ice-cold solution of 10 mM Tris-HCl (pH 7.4). Equal aliquots of this cell membrane preparation were incubated with [^125 I-Tyr^11 ]somatostatin-14 (at a final concentration of 0.5nM and 750,000 cpm/mL, at a specific activity of 2000 Ci/mmol, Amersham, Arlington Heights, Ill.) and peptide at a final concentration of from 10^-11 M to 10^-6 M in a solution of 50 mM HEPES (pH 7.4) containing 1% bovine serum albumin (BSA), 5 mM MgCl2, Trasylol (200,000 International Units), bacitracin (0.02 mg/mL) and phenylmethylsulfonylfluoride (0.02 mg/mL) for 25 min at 30° C. Using a filtration manifold, this mixture was filtered through a polyethyleneimine-washed GC/F filter (Whatman, Maidstone, England), and the residue remaining on the filter wastled thrice with 5 mL cold HEPES buffer. The filter and a sample of the filter washings were then counted in a gamma counter. To assess non-specific binding, the assay was performed in the presence of unlabeled somatostatin-14 at 200 nM. Data analysis including Hill plots of the data provided inhibition constants (see Bylund & Yamamura, "Methods of receptor binding", in Methods in Neurotransmitter Receptor Analysis, Yamamura et al., eds., Raven Press: New York, 1990).

T1 sequence (P30680 whole entry): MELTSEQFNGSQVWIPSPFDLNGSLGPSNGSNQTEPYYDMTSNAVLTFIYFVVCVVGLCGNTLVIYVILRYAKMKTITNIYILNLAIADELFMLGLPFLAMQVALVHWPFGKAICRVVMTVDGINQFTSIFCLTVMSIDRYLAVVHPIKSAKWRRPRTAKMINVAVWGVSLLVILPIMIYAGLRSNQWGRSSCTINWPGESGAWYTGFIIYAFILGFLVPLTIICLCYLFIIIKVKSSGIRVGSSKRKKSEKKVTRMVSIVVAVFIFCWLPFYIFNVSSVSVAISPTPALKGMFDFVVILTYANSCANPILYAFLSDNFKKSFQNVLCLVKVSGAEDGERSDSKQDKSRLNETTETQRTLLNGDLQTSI

| Ki [nM] | Molecule |
| --- | --- |
| 0.73 | CC(=O)NCSC[C@H](NC(C)=O)C(=O)NCC(=O)N[C@@H](CSCNC(C)=O)C(=O)N[C@H](Cc1ccccc1)C(=O)N[C@@H](Cc1ccc(Cl)cc1)C(=O)N[C@@H](Cc1ccc(O)cc1)C(=O)N[C@H](Cc1c[nH]c2ccccc12)C(=O)N[C@@H](CCCCN)C(=O)N[C@H](C(=O)N[C@@H](Cc1ccccc1)C(=O)N[C@H](C(N)=O)[C@@H](C)O)[C@@H](C)O [Ac.CAcm GCAcm FD.CPa.YWD KTFT.amide, Ac.CAcm GCAcm FD.Cpa.YWD KTFT.amide] (Ac-C(Acm)GC(Acm)[dF][Phe(4-Cl)]Y[dW]KTFT-NH2) |
| 4.4 | CC(=O)N[C@@H](CS)C(=O)NCC(=O)N[C@@H](CS)C(=O)N[C@H](Cc1ccccc1)C(=O)N[C@@H](Cc1ccc(Cl)cc1)C(=O)N[C@@H](Cc1ccc(O)cc1)C(=O)N[C@H](Cc1c[nH]c2ccccc12)C(=O)N[C@@H](CCCCN)C(=O)N[C@H](C(=O)N[C@@H](Cc1ccccc1)C(=O)N[C@H](C(N)=O)[C@@H](C)O)[C@@H](C)O [Ac.CGCFD.Cpa.YWD KTFT.amide] (Ac-CGC[dF][Phe(4-Cl)]Y[dW]KTFT-NH2) |
| 8.2 | CC(=O)N[C@H](Cc1ccccc1)C(=O)N[C@@H](Cc1ccccc1)C(=O)N[C@@H](Cc1ccc(O)cc1)C(=O)N[C@H](Cc1c[nH]c2ccccc12)C(=O)N[C@@H](CCCCN)C(=O)N[C@H](C(=O)N[C@@H](Cc1ccccc1)C(=O)N[C@H](C(=O)NCC(=O)NCC(=O)NCC(=O)NCCCC[C@H](N)C(=O)NCC(=O)N[C@@H](CS)C(N)=O)[C@@H](C)O)[C@@H](C)O [Ac.FD FYWD KTFTGGG(ε-K)GC.amide] (Ac-[dF]FY[dW]KTFTGGG[εLys]GC-NH2) |
| 0.85 | CC(=O)NCSC[C@H](NC(=O)CNC(=O)[C@H](CSCNC(C)=O)NC(=O)[C@@H](NC(=O)[C@H](Cc1ccccc1)NC(=O)[C@@H](NC(=O)[C@H](CCCCN)NC(=O)[C@@H](Cc1c[nH]c2ccccc12)NC(=O)[C@H](Cc1ccc(O)cc1)NC(=O)[C@H](Cc1ccc(Cl)cc1)NC(=O)[C@H](N)Cc1ccccc1)[C@@H](C)O)[C@@H](C)O)C(N)=O [FD.CPa.YWD KTFTCAcm GCAcm.amide, FD.Cpa.YWD KTFTCAcm GCAcm.amide] (H-[dF][Phe(4-Cl)]Y[dW]KTFTC(Acm)GC(Acm)-NH2) |
| 8.2 | C[C@@H](O)[C@H](NC(=O)[C@H](CCCCN)NC(=O)[C@@H](Cc1c[nH]c2ccccc12)NC(=O)[C@H](Cc1ccc(O)cc1)NC(=O)[C@H](Cc1ccc(Cl)cc1)NC(=O)[C@H](N)Cc1ccccc1)C(=O)N[C@@H](CS)C(=O)N[C@@H](Cc1ccc2ccccc2c1)C(N)=O [FD.Cpa.YWD KTC.Nal.amide] (H-[dF][Phe(4-Cl)]Y[dW]KTC[2Nal]-NH2) |
| 2.4 | CC(=O)NCSC[C@H](NC(=O)CNC(=O)[C@H](CSCNC(C)=O)NC(=O)CNC(=O)CNC(=O)CNC(=O)[C@@H](NC(=O)[C@H](Cc1ccccc1)NC(=O)[C@@H](NC(=O)[C@H](CCCCN)NC(=O)[C@@H](Cc1c[nH]c2ccccc12)NC(=O)[C@H](Cc1ccc(O)cc1)NC(=O)[C@H](Cc1ccc(Cl)cc1)NC(=O)[C@H](N)Cc1ccccc1)[C@@H](C)O)[C@@H](C)O)C(N)=O [FD.Cpa.YWD KTFT.GGGCAcm GCAcm.amide] (H-[dF][Phe(4-Cl)]Y[dW]KTFTGGGC(Acm)GC(Acm)-NH2) |
| 9.9 | CSC[C@H](NC(=O)[C@@H](NC(=O)[C@H](CCCCN)NC(=O)[C@@H](Cc1c[nH]c2ccccc12)NC(=O)[C@H](Cc1ccc(O)cc1)NC(=O)[C@H](CSC)NC(=O)[C@@H](Cc1ccc2ccccc2c1)NC(=O)[C@@H](N)CCCCNC(=O)CCCCN(CCNCC(C)(C)S)CC(C)(C)S)C(C)C)C(=O)N[C@H](C(N)=O)[C@@H](C)O [K.[BAT].D-Nal.CMe YWD KVCMe T.amide, K(BAT).D-Nal.CMe YWD KVCMe T.amide] (H-K(X4)[d2Nal]C(Me)Y[dW]KVC(Me)T-NH2; N-terminus assumed) |
| 3.3 | C[C@@H](O)[C@H](NC(=O)[C@H](Cc1ccccc1)NC(=O)[C@@H](NC(=O)[C@H](CCCCN)NC(=O)[C@@H](Cc1c[nH]c2ccccc12)NC(=O)[C@H](Cc1ccc(O)cc1)NC(=O)[C@H](Cc1ccccc1)NC(=O)[C@@H](Cc1ccccc1)NC(=O)[C@H](CS)NC(=O)CNC(=O)[C@@H](N)CCCCNC(=O)CN(CCN(CCN(CC(=O)O)CC(=O)O)CC(=O)O)CC(=O)O)[C@@H](C)O)C(N)=O [[DTPA].(ε-K)GCFD.FYWD KTFT.amide] (H-K(DTPA)GC[dF]FY[dW]KTFT-NH2) |
| 1.3 | C[C@@H](O)[C@H](NC(=O)[C@H](Cc1ccccc1)NC(=O)[C@@H](NC(=O)[C@H](CCCCN)NC(=O)[C@@H](Cc1c[nH]c2ccccc12)NC(=O)[C@H](Cc1ccc(O)cc1)NC(=O)[C@H](Cc1ccc(Cl)cc1)NC(=O)[C@@H](Cc1ccc2ccccc2c1)NC(=O)CN(CCN(CCN(CC(=O)O)CC(=O)O)CC(=O)O)CC(=O)O)[C@@H](C)O)C(=O)NCCCC[C@H](N)C(=O)NCC(=O)N[C@@H](CS)C(=O)N[C@@H](CCCCN)C(=O)N[C@@H](CCCCN)C(N)=O [[DTPA].D-Nal.Cpa.YWD KTFT(ε-K)GCKK.amide] ({DTPA}-[d2Nal][Phe(4-Cl)]Y[dW]KTFT[εLys]GCKK-NH2) |
| 2.9 | AKCGGGFD FYWD KTFT.amide |
| 0.76 | AKCGGGFD.Cpa.YWD KTFT.amide |
| 4.1 | Ac.CGCFD.Cpa.YWD KTFT.amide |
| 6.1 | Ac.FD FYWD KTFGGG(ε-K)KC.amide |
| 1.5 | Ac.FD FYWD KTFT(ε-K)GC.amide |
| 8.1 | Ac.FD FYWD KTFTGGG(ε-K)GC.amide |
| 0.37 | FD.CPa.YWD KTFTCGC.amide (not fully specified; Re=O complex; FD.CPa.YWD prefix; C-terminal amide) |
| 3.3 | FD.Cpa.YWD K.Abu.Nal.T(ε-K)GC.amide |
| 0.36 | FD.Cpa.YWD KTFT(ε-K)GC.amide |
| 8.2 | [DTPA].Aca.FD.Cpa.YWD KTFT(ε-K)GC.amide |
| 0.007 | [DTPA].D-Nal.Cpa.YWD KTFT(ε-K)GC.amide |
| 0.027 | [DTPA].FD.Cpa.YWD KTFT(ε-K)GC.amide |
| 0.97 | maGGGFD.Cpa.YWD KTFT.amide |
